Molecular target: human TNAP (Homo sapiens (Human), UniProt P05186)
Experiment: Inhibitory test of TNAP activity (pNPP substrate, p-nitrophenol production)
Assay type: biochemical
Details: inhibition of human TNAP activity, incubated at room temperature for 60 minutes
Description: COS 1 cells (DS Pharma Biomedical Co., Ltd.) were transfected with human TNAP (OriGene Technologies, Inc.) using Lipofectamine LTX & Plus reagent (Invitrogen Corp.). On the next day, the medium was replaced with a fresh medium, and the cells were cultured in an incubator for 3 days. After 3 days, the culture supernatant was collected and concentrated by centrifugation at 5000 G for 30 minutes using Amicon 14, 10^4 cut (Merck Millipore). The concentrated culture supernatant was dialyzed against 5 L of 50 mM Tris/200 mM NaCl/1 mM MgCl2/20 μM ZnCl2 twice and used as an enzyme source (enzyme solution). The substrate pNPP (ProteoChem Inc.) was adjusted to 3.1 mM with Milli-Q water, and a solution of each test compound dissolved in dimethyl sulfoxide (DMSO; Wako Pure Chemical Industries, Ltd.) by 6 serial dilutions at a 5-fold common ratio from 100 μM, or DMSO was added thereto at a final concentration of 1% by volume. The enzyme solution adjusted to 2 μg/mL with an assay buffer (200 mM Tris/2 mM MgCl2/0.04 mM ZnCl2/0.01% Tween 20) was added in the same amount of the substrate solution and incubated at room temperature for 60 minutes. Then, the absorbance (ABS: 405 nm) was measured using a microplate reader (model plus 384, Molecular Devices, LLC), and the concentration of produced p-nitrophenol was calculated.

Sequence of human TNAP (P05186 18-502): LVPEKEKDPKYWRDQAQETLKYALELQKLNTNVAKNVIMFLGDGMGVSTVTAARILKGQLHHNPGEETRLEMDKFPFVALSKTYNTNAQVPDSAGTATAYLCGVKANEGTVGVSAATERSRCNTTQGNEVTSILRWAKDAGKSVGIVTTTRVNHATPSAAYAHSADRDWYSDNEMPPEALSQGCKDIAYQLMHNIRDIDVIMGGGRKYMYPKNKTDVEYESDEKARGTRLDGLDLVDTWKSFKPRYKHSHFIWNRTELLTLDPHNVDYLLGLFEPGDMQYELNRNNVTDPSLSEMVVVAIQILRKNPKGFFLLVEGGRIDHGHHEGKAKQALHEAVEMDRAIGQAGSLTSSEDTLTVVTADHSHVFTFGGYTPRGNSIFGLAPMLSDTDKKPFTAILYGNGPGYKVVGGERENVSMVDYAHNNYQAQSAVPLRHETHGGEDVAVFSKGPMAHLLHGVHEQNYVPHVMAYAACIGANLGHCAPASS

Row | Compound | IC50 [nM]
1 | COc1ccc(F)cc1S(=O)(=O)Nc1cnc2c(c1)C(=O)N(C)[C@H](C)CO2 [Example 21, N-[(3R)-3,4-Dimethyl-5-oxo-2,3,4,5-tetrahydropyrido[3,2-f][1,4]oxazepin-7-yl]-5-fluoro-2-methoxybenzenesulfonamide] | 46
2 | COc1ccc(F)cc1S(=O)(=O)Nc1cnc2c(c1)C(=O)N(C)CC(C)O2 (stereo not shown) [Example 15, N-(2,4-Dimethyl-5-oxo-2,3,4,5-tetrahydropyrido[3,2-f][1,4]oxazepin-7-yl)-5-fluoro-2-methoxybenzenesulfonamide] | 95.7
3 | COc1ccc(Cl)cc1S(=O)(=O)Nc1cnc2c(c1)C(=O)NC1(CC1)CO2 [Example 35, 5-Chloro-2-methoxy-N-(5′-oxo-4′,5′-dihydrospiro[cyclopropane-1,3′-pyrido[3,2-f][1,4]oxazepin]-7′-yl)benzenesulfonamide] | 1.1
4 | COc1ccc(F)cc1S(=O)(=O)Nc1cnc2c(c1)C(=O)N[C@@H](CO)CO2 [Example 28, 5-Fluoro-N-[(3S)-3-(hydroxymethyl)-5-oxo-2,3,4,5-tetrahydropyrido[3,2-f][1,4]oxazepin-7-yl]-2-methoxybenzenesulfonamide] | 3.6
5 | COc1ccc(Cl)cc1S(=O)(=O)Nc1cnc2c(c1)C(=O)NCCO2 [Example 9, 5-Chloro-2-methoxy-N-(5-oxo-2,3,4,5-tetrahydropyrido[3,2-f][1,4]oxazepin-7-yl)benzenesulfonamide] | 1.4
6 | COc1ccc(F)cc1S(=O)(=O)Nc1cnc2c(c1)C(=O)N[C@@H](C)CO2 [Example 23, 5-Fluoro-2-methoxy-N-[(3S)-3-methyl-5-oxo-2,3,4,5-tetrahydropyrido[3,2-f][1,4]oxazepin-7-yl]benzenesulfonamide] | 3.5
7 | O=C1NC2(CC2)COc2ncc(NS(=O)(=O)c3cc(Cl)ccc3OC(F)(F)F)cc21 [Example 40, 5-Chloro-N-(5′-oxo-4′,5′-dihydrospiro[cyclopropane-1,3′-pyrido[3,2-f][1,4]oxazepin]-7′-yl)-2-(trifluoromethoxy)benzenesulfonamide] | 1.9
8 | COc1ccc(Cl)cc1S(=O)(=O)Nc1cnc2c(c1)C(=O)N[C@@H](CC(=O)N(C)C)CO2 [Example 34, 2-[(3S)-7-{[(5-Chloro-2-methoxyphenyl)sulfonyl]amino}-5-oxo-2,3,4,5-tetrahydropyrido[3,2-f][1,4]oxazepin-3-yl]-N,N-dimethylacetamide] | 6.7

Continued, values first:

Row | IC50 [nM] | Compound
9 | 43.4 | COc1ccc(Cl)cc1S(=O)(=O)Nc1cnc2c(c1)C(=O)N(c1ccccc1)CCO2 [Example 37, 5-Chloro-2-methoxy-N-(5-oxo-4-phenyl-2,3,4,5-tetrahydropyrido[3,2-f][1,4]oxazepin-7-yl)benzenesulfonamide]
10 | 9.1 | COc1ccc(CN2CCOc3ncc(NS(=O)(=O)c4cc(Cl)ccc4OC)cc3C2=O)c(OC)c1 [Example 8, 5-Chloro-N-[4-(2,4-dimethoxybenzyl)-5-oxo-2,3,4,5-tetrahydropyrido[3,2-f][1,4]oxazepin-7-yl]-2-methoxybenzenesulfonamide]
11 | 1.7 | CC[C@H]1COc2ncc(NS(=O)(=O)c3cc(Cl)ccc3OC)cc2C(=O)N1 [Example 25, 5-Chloro-N-[(3S)-3-ethyl-5-oxo-2,3,4,5-tetrahydropyrido[3,2-f][1,4]oxazepin-7-yl]-2-methoxybenzenesulfonamide]
12 | 13.2 | COc1ccc(Cl)cc1S(=O)(=O)Nc1cnc2c(c1)C(=O)N(c1cccnc1)CCO2 [Example 39, 5-Chloro-2-methoxy-N-[5-oxo-4-(pyridin-3-yl)-2,3,4,5-tetrahydropyrido[3,2-f][1,4]oxazepin-7-yl]benzenesulfonamide]
13 | 24.4 | COc1ccc(Cl)cc1S(=O)(=O)Nc1cnc2c(c1)C(=O)N(c1ccccn1)CCO2 [Example 38, 5-Chloro-2-methoxy-N-[5-oxo-4-(pyridin-2-yl)-2,3,4,5-tetrahydropyrido[3,2-f][1,4]oxazepin-7-yl]benzenesulfonamide]
